From paper PMC9260974 (BMC Pharmacology & Toxicology, 2022)
Values joined by “and” are separate entries in the source; they are usually repeats but may differ in a detail not shown here. Equal values may be shown once. Read-outs that look alike come from different tables or passages of the source.

Key:
[1] = Single-dose two-period crossover bioequivalence study, fed (high-fat breakfast): plasma pharmacokinetics of lisinopril and amlodipine (LC-MS/MS, NCA); settings: for concentration at 3 h / concentration at 10 h / concentration at 6 h / concentration at 5 h / concentration at 7 h / concentration at 8 h / concentration at 11 h / concentration at 12 h / concentration at 0 h / concentration at 1 h / concentration at 2 h / concentration at 4 h / concentration at 9 h / concentration at 13 h / concentration at 24 h / concentration at 36 h / concentration at 48 h / concentration at 72 h / concentration at 96 h / concentration at 144 h / concentration at 168 h: human, po, Plasma concentration of lisinopril; for concentration at 3 h: nominal time 3 h; for concentration at 3 h / concentration at 10 h / concentration at 6 h / concentration at 5 h / concentration at 7 h / concentration at 8 h / concentration at 11 h / concentration at 12 h / concentration at 0 h / concentration at 1 h / concentration at 2 h / concentration at 4 h / concentration at 9 h / concentration at 13 h / concentration at 24 h / concentration at 36 h / concentration at 48 h / concentration at 72 h / concentration at 96 h / concentration at 144 h / concentration at 168 h / Plasma concentration of lisinopril: reference (R) tablets; for concentration at 10 h: nominal time 10 h; for concentration at 6 h: nominal time 6 h; for concentration at 5 h: nominal time 5 h; for concentration at 7 h: nominal time 7 h; for concentration at 11 h: nominal time 11 h; for concentration at 12 h: nominal time 12 h; for concentration at 0 h: nominal time 0 h; for concentration at 2 h: nominal time 2 h; for concentration at 4 h: nominal time 4 h; for concentration at 9 h: nominal time 9 h; for concentration at 13 h: nominal time 13 h; for concentration at 24 h: nominal time 24 h; for concentration at 36 h: nominal time 36 h; for concentration at 48 h: nominal time 48 h; for concentration at 72 h: nominal time 72 h; for concentration at 96 h: nominal time 96 h; for Plasma concentration of lisinopril: oral, listed as LSN;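 as to Plasma concentration of lisinopril: single tablet dose 10 mg/5 mg fixed combination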
Procedure: (§1) All eligible subjects were assigned according to the random table generated by SAS 9.4 and took the test (T) and reference(R) drugs respectively with 240 ml water after an overnight fast of at least 10 h (fasting study) or after the high-fat breakfast within half an hour before dosing (fed study). […] Subjects were forbidden to drink water within 1 h before and after taking the drug, and the lunch and dinner were provided at 4 h and 8 h respectively post-drug administration. No other food and beverage intake was permitted except the provided diets. […] 4 ml venous blood samples were collected before drug administration and at 1,2,3,4,5,6,7,8,9,10,11,12,13,24,36,48,72,96,144,168 h after administration. The samples were centrifuged at 1700gear per minute for 10 min at 4℃ to separate the plasma, which was divided into two aliquots (drug monitoring at least 800ul and backup) and stored at - 80℃until analysis.
(§2) The lower limit of quantification (LLOQ) was 0.500 ng/mL and the assay dynamic range was 0.500-100 ng/mL.
(§3) Under multiple reaction monitoring, LC–MS/MS system adopts positive ionization mode.
(§4) Data collection and analysis was performed with Analyst 1.6.3 software (Sciex, Canada) and Watson LIMS (Thermo, USA). Calibration curves were constructed using linear regression equation obtained by the weighted (W = 1/X2) least square method fitting for both analytes. Quantitation of quality control and clinical samples were also performed by the Analyst software using the same mathematical algorithm as that used in the calibration of standard curves.
(§5) For the purpose of bioequivalence analysis, the maximum observed concentration (Cmax), the area under the plasma concentration–time curve from time 0 to the last measured time point (AUC0-t), and the area under the plasma concentration–time curve from time 0 to infinity (AUC0-∞) were considered as primary PK parameters. The secondary PK parameters were the observed time to Cmax (Tmax) and the apparent terminal half-life (T1/2). Cmax and Tmax were the factually measured data and AUC0-t was calculated using the linear and logarithmic trapezoidal methods. AUC0-∞ was calculated according to the following formula: AUC0-∞ = AUC0-t + Clast/λz (Clast is the last measurable concentration and is the first order rate constant of terminal elimination determined from a linear regression line after logarithmic transformation at the end of concentration time curve. λz is the slope calculated by linear regression after logarithmic conversion at the end of the concentration–time curve). T1/2 was calculated to be ln2/λ.
(§6) Statistical analysis was performed by SAS 9.4. Demographic characteristics, safety parameters and pharmacokinetic data were summarized using descriptive statistics, the results were presented as the mean ± SD and the differences between groups were determined by two one-sided tests. […] AUC and Cmax were logarithmically transformed and analyzed by linear mixed effect model. Sequence, period and formulation were fixed effects, and subject within sequence was included as a random effect. Analysis of variance (ANOVA) of cross-over design was performed on the log-transformed variables. […] Bioequivalence was assessed separately in both the fasting and fed groups.

[2] = lisinopril; cited from earlier work
blood pressure = settings: after oral administration; cited from earlier work
[3] = human, in vivo
Procedure: as §1, §2, §3, §4, §5, §6

clinical = settings: human, plasma, po
Procedure: as §1, §2, §3, §4, §5, §6

[4] = plasma, Max, maximum among subjects
[5] = plasma, Mean, mean of 37 subjects
[6] = plasma, Min, minimum among subjects
[7] = lisinopril, intra-subject coefficient of variation

NCCCC[C@H](N[C@@H](CCc1ccccc1)C(=O)O)C(=O)N1CCC[C@H]1C(=O)O [lisinopril]
concentration at 3 h ([1]; in vivo, Max, maximum among subjects): 22.4 ng/mL
concentration at 10 h ([1]; in vivo, Mean, mean of 36 subjects): 12.9 ng/mL
concentration at 6 h ([1]; in vivo, Mean, mean of 37 subjects): 13.3 ng/mL
concentration at 3 h ([1]; in vivo, individual subjects): 22.4 ng/mL
concentration at 5 h ([1]; in vivo, individual subjects): 12.9 ng/mL
concentration at 6 h ([1]; in vivo, individual subjects): 22.4 ng/mL
concentration at 7 h ([1]; in vivo, individual subjects): 22.4 ng/mL
concentration at 8 h ([1]; in vivo, individual subjects, nominal time 8 h): 22.4 ng/mL
concentration at 11 h ([1]; in vivo, individual subjects): 12.9 ng/mL
concentration at 12 h ([1]; in vivo, individual subjects): 13.3 ng/mL
concentration at 0 h [1, 4]: 0.532 ng/mL
concentration at 1 h ([1]; plasma, Max, maximum among subjects, nominal time 1 h): 3.22 ng/mL
concentration at 2 h [1, 4]: 12 ng/mL
concentration at 4 h [1, 4]: 29.2 ng/mL
concentration at 5 h [1, 4]: 29.7 ng/mL
concentration at 6 h [1, 4]: 29.5 ng/mL
concentration at 7 h [1, 4]: 29.8 ng/mL
concentration at 8 h ([1]; plasma, Max, maximum among subjects, nominal time 8 h): 27.4 ng/mL
concentration at 9 h [1, 4]: 27.1 ng/mL
concentration at 10 h [1, 4]: 24.1 ng/mL
concentration at 11 h [1, 4]: 21.9 ng/mL
concentration at 12 h [1, 4]: 20.8 ng/mL
concentration at 13 h [1, 4]: 19 ng/mL
concentration at 24 h [1, 4]: 8.44 ng/mL
concentration at 36 h [1, 4]: 3.64 ng/mL
concentration at 48 h [1, 4]: 3.23 ng/mL
concentration at 72 h [1, 4]: 2.87 ng/mL
concentration at 96 h [1, 4]: 2.72 ng/mL
concentration at 144 h ([1]; plasma, Max, maximum among subjects, nominal time 144 h): 2.07 ng/mL
concentration at 168 h ([1]; plasma, Max, maximum among subjects, nominal time 168 h): 1.66 ng/mL
concentration at 0 h [1, 5]: 0.0284 ng/mL
concentration at 1 h ([1]; plasma, Mean, mean of 37 subjects, nominal time 1 h): 0.795 ng/mL
concentration at 2 h [1, 5]: 2.85 ng/mL
concentration at 3 h [1, 5]: 5.92 ng/mL
concentration at 4 h [1, 5]: 9.3 ng/mL
concentration at 5 h [1, 5]: 11.9 ng/mL
concentration at 7 h [1, 5]: 13.9 ng/mL
concentration at 8 h ([1]; plasma, Mean, mean of 37 subjects, nominal time 8 h): 14 ng/mL
concentration at 9 h [1, 5]: 13.5 ng/mL
concentration at 11 h [1, 5]: 12 ng/mL
concentration at 12 h [1, 5]: 10.8 ng/mL
concentration at 13 h [1, 5]: 9.81 ng/mL
concentration at 24 h [1, 5]: 4.32 ng/mL
concentration at 36 h [1, 5]: 2.32 ng/mL
concentration at 48 h [1, 5]: 1.88 ng/mL
concentration at 72 h [1, 5]: 1.46 ng/mL
concentration at 96 h [1, 5]: 1.21 ng/mL
concentration at 144 h ([1]; plasma, Mean, mean of 37 subjects, nominal time 144 h): 0.741 ng/mL
concentration at 168 h ([1]; plasma, Mean, mean of 37 subjects, nominal time 168 h): 0.639 ng/mL
concentration at 0 h [1, 6]: 0 ng/mL
concentration at 1 h ([1]; plasma, Min, minimum among subjects, nominal time 1 h): 0 ng/mL
concentration at 2 h [1, 6]: 0 ng/mL
concentration at 3 h [1, 6]: 0.89 ng/mL
concentration at 4 h [1, 6]: 1.37 ng/mL
concentration at 5 h [1, 6]: 2.12 ng/mL
concentration at 6 h [1, 6]: 3.02 ng/mL
concentration at 7 h [1, 6]: 3.34 ng/mL
concentration at 8 h ([1]; plasma, Min, minimum among subjects, nominal time 8 h): 3.75 ng/mL
concentration at 9 h [1, 6]: 4.2 ng/mL
concentration at 10 h [1, 6]: 4.09 ng/mL
concentration at 11 h [1, 6]: 3.97 ng/mL
concentration at 12 h [1, 6]: 3.57 ng/mL
concentration at 13 h [1, 6]: 3.73 ng/mL
concentration at 24 h [1, 6]: 2.31 ng/mL
concentration at 36 h [1, 6]: 1.27 ng/mL
concentration at 48 h [1, 6]: 0.976 ng/mL
concentration at 72 h [1, 6]: 0.736 ng/mL
concentration at 96 h [1, 6]: 0.564 ng/mL
concentration at 144 h ([1]; plasma, Min, minimum among subjects, nominal time 144 h): 0 ng/mL
concentration at 168 h ([1]; plasma, Min, minimum among subjects, nominal time 168 h): 0 ng/mL
Plasma concentration of lisinopril ([1]; individual subjects, nominal time 1 h): 0.899 ng/mL and 0.567 ng/mL and 0.719 ng/mL and 1.48 ng/mL and 3.22 ng/mL and 1.13 ng/mL and 0.941 ng/mL and 3.14 ng/mL and 0.842 ng/mL and 1.25 ng/mL and 0.826 ng/mL and 0.793 ng/mL and 1.55 ng/mL and 0.556 ng/mL and 0.744 ng/mL and 1.26 ng/mL and 1.43 ng/mL and 0.747 ng/mL and 1.81 ng/mL and 0.710 ng/mL and 0.799 ng/mL and 0.831 ng/mL and 2.32 ng/mL
Plasma concentration of lisinopril ([1]; individual subjects, nominal time 8 h): 13.3 ng/mL
Plasma concentration of lisinopril ([1]; individual subjects, nominal time 144 h): 1.05 ng/mL and 0.866 ng/mL and 2.07 ng/mL and 0.911 ng/mL and 0.569 ng/mL and 0.775 ng/mL and 0.691 ng/mL and 0.777 ng/mL and 0.834 ng/mL and 0.868 ng/mL and 0.514 ng/mL and 0.885 ng/mL and 0.919 ng/mL and 1.07 ng/mL and 1.00 ng/mL and 1.32 ng/mL and 0.715 ng/mL and 0.954 ng/mL and 1.83 ng/mL and 0.661 ng/mL and 0.869 ng/mL and 0.760 ng/mL and 0.582 ng/mL and 0.969 ng/mL and 0.992 ng/mL and 0.736 ng/mL and 0.576 ng/mL and 1.56 ng/mL and 1.10 ng/mL
Plasma concentration of lisinopril ([1]; individual subjects, nominal time 168 h): 0.904 ng/mL and 0.689 ng/mL and 1.66 ng/mL and 0.780 ng/mL and 0.534 ng/mL and 0.708 ng/mL and 0.504 ng/mL and 0.629 ng/mL and 0.750 ng/mL and 0.711 ng/mL and 0.787 ng/mL and 0.832 ng/mL and 0.987 ng/mL and 0.890 ng/mL and 1.20 ng/mL and 0.696 ng/mL and 0.773 ng/mL and 0.528 ng/mL and 1.38 ng/mL and 0.522 ng/mL and 0.761 ng/mL and 0.659 ng/mL and 0.502 ng/mL and 0.849 ng/mL and 0.785 ng/mL and 0.620 ng/mL and 0.572 ng/mL and 1.04 ng/mL
Intra-CV (%) of AUC0-t [1, 7]: 13.3%
Intra-CV (%) of AUC0-∞ [1, 7]: 12.9%
Intra-CV (%) of Cmax [1, 7]: 22.4%
Decrease of AUC0-24 by concomitant EGCG-concentrated green tea extract [2]: 69%
Decrease of AUC0-∞ by concomitant EGCG-concentrated green tea extract [2]: 67%
Decrease of Cmax by concomitant EGCG-concentrated green tea extract [2]: 71%
Mean fecal recovery of intact drug [2]: 69%
Time to appearance of antihypertensive effect (blood pressure): ≤ 1 h
Time to peak antihypertensive effect (blood pressure): about 6 h
Intra-CV (%) of AUC0-t [3]: 19.3%
Intra-CV (%) of AUC0-∞ [3]: 17.0%
Intra-CV (%) of Cmax [3]: 24.3%
concentration at 0 h (clinical): 0.517 ng/mL
